Measurements published in paper PMC9619225, “Novel transketolase inhibitor oroxylin A suppresses the non‐oxidative pentose phosphate pathway and hepatocellular carcinoma tumour growth in mice and patient‐derived organoids” (Clinical and Translational Medicine, 2022).

Assays:
Format in all cases: binding
Transketolase (TKT) [1] = target: T1, Transketolase (TKT) (Homo sapiens, UniProt P29401); assay: SPR (Biacore, TKT immobilised on HisCap chip); supported by DARTS, CETSA, TKT-column displacement and enzyme inhibition ([…] at […]); design: Purified human TKT protein
T1 sequence (P29401 1-623): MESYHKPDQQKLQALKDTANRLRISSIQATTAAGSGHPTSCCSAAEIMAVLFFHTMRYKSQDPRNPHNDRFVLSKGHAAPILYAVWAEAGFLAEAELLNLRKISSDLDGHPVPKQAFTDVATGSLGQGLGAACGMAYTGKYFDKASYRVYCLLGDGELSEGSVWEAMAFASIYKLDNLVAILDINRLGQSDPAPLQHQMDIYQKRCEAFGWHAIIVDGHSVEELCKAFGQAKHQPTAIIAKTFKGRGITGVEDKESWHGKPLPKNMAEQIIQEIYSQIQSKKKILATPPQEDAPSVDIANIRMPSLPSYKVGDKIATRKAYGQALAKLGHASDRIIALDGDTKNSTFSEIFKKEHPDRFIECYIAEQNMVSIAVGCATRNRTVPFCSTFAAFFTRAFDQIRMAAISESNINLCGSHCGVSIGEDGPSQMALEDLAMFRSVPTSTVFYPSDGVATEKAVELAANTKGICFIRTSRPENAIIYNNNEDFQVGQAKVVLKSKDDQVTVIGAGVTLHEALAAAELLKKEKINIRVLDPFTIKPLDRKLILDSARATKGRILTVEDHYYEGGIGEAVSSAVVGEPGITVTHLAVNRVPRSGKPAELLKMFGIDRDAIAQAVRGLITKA

p53 = target: T2, p53 (Homo sapiens, UniProt P04637); assay: SPR
T2 construct: gene TP53

Transketolase (TKT) [2] = target: T1, Transketolase (TKT); assay: competitive displacement chromatography on TKT protein column; design: TKT protein immobilised on silica column

T2 sequence (P04637 whole entry): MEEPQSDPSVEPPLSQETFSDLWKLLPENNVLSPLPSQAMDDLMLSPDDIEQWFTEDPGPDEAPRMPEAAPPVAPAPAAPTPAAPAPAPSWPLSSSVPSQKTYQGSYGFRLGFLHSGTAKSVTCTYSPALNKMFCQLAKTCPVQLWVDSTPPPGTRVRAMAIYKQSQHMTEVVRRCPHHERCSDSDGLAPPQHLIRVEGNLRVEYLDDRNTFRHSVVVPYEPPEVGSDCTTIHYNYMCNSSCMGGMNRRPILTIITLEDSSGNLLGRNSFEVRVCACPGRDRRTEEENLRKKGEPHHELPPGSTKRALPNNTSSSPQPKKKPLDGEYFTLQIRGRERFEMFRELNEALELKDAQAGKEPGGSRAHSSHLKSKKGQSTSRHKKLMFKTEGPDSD

Row | Kd (Transketolase (TKT) [1]) | Kd (p53) | Structure (SMILES) | competitive displacement chromatography on TKT protein column (Transketolase (TKT) [2])
1 | 11.9 ± 8.4 µM | 70.7 µM | COc1c(O)cc2oc(-c3ccccc3)cc(=O)c2c1O [oroxylin A] | 
2 |  |  | Cc1ncc(C[n+]2csc(CCO)c2C)c(O)n1 [oxythiamine] | retention time of oxythiamine was markedly decreased with the increased concentration of oroxylin A in mobile phase
